According to US4769364A, “Pyrimidin-5-yl phosphoric acid ester and thionophosphoric acid ester pesticides” (priority 1985, dated 1988):

How the values were obtained:
Meloidogyne incognita = assay: Critical concentration test/nematodes: Meloidogyne incognita; format: in vivo; details: 20 ppm active compound in soil; lettuce, four weeks, 27° C.; 100% = infestation completely avoided
Experimental: Critical concentraion test/nematodes
Test nematode: Meloidogyne incognita
(§1) Solvent: 3 parts by weight of acetone
(§2) Emulsifier: 1 part by weight of alkylaryl polyglycol ether.
(§3) To produce a suitable preparation of active compound, 1 part by weight of active compound is mixed with the stated amount of solvent, the stated amount of emulsifier is added and the concentrate is diluted with water to the desired concentration.
The preparation of active compound is intimately mixed with soil which is heavily infested with the test nematodes. The concentration of the active compound in the preparation is of practically no importance, only the amount of active compound per unit volume of soil, which is given in ppm, being decisive. The treated soil is filled into pots, lettuce is sown in and the pots are kept at a greenhouse temperature of 27° C.
After four weeks, the lettuce roots are examined for infestation with nematodes (root galls), and the degree of effectiveness of the active compound is determined in %. The degree of effectiveness is 100% if infestation is completely avoided and is 0% if the infestation is just as high as in the case of the control plants in untreated soil which has been infested in the same manner.

[1] = tested on: Diabrotica balteata larvae; assay: Critical concentration test/soil insects: Diabrotica balteata larvae in the soil; format: in vivo; details: 168 h, 2.5 ppm active compound in soil, after a further 7 days, 100% = all test insects killed, read-out: degree of effectiveness
Experimental: (§4) Critical concentration test/soil insects
Test insect: Diabrotica balteata larvae in the soil
as §1, §2, §3
(§5) The preparation of active compound is intimately mixed with soil. The concentration of the active compound in the preparation is of practically no importance, only the amount by weight of active compound per unit volume of soil, which is given in ppm (=mg/liter) being decisive. The soil is filled into 0.5 liter pots and these are left to stand at 20° C.
Immediately after setting up the test, 6 pregerminated grains of corn are placed in each pot. After 2 days, the corresponding test insects are introduced into the treated soil. After a further 7 days the degree of effectiveness of the active compound is determined in % by counting the dead and live test insects. The degree of effectiveness is 100% if all the test insects have been killed and is 0% if just as many test insects are still alive as in the case of the untreated control.

[2] = Toxicity to warm-blooded animals, LD50 on rats (oral); details: rat, in vivo, oral (stomach tube), dissolved in polyethylene glycol LUTROL
Experimental: Toxicity to warm-blooded animals, LD50 values on rats (oral)
The values were determined in the customary manner. The active compounds were dissolved in polyethylene glycol LUTROL (trademark of BASF AG, Ludwigshafen, Federal Republic of Germany) and the solution was administered to rats with a stomach tube.

Phorbia antiqua maggots = assay: Critical concentration test/soil insects: Phorbia antiqua maggots (in the soil); format: in vivo; details: 2.5 ppm active compound in soil; 2 to 7 days; 100% = all test insects killed
Experimental: as §4
Test insect: Phorbia antiqua maggots (in the soil)
as §1
Emulsifier: 1 part by weight alkylaryl polyglycol ether.
as §3
as §5, with “into” for “into 0.5 liter”, “the pots” for “these”, “room temperature.” for “20° C.”
After 24 hours, the test insects are introduced into the treated soil, and after a further 2 to 7 days the degree of effectiveness of the active compound is determined in % by counting the dead and live test insects. The degree of effeciveness is 100% if all the test insects have been killed and is 0% if just as many test insects are still alive as in the case of the untreated control.

[3] = tested on: Lucilia cuprina OP res. larvae; assay: Test with Lucilia cuprina OP res. larvae; format: in vivo; details: 10 ppm active compound, 24 hours, read-out: destruction
Experimental: Test with Lucilia cuprina OP res. larvae
35 parts by weight of ethylene glycol monoethyl ether
35 parts by weight of nonylphenol polyglycol ether.
To produce a suitable preparation of active compound, three parts by weight of active compound are mixed with seven parts by weight of the abovementioned solvent mixture and the concentrate thus obtained is diluted with water to the particular desired concentration.
About 20 Lucilia cuprina res. larvae are introduced into a test tube which contains approx. 1 cm^2 of horse muscle and 0.5 ml of the preparation of active compound. After 24 hours, the degree of destruction is determined.

Psoroptes ovis = assay: Test with Psoroptes ovis; format: in vivo; details: 10 ppm active compound, 24 hours, read-out: destruction
Experimental: 35 parts by weight of ethylene glycol monomethyl ether
35 parts by weight of nonylphenol polyglycol ether
To produce a suitable preparation of active compound, three parts by weight of active compound are mixed with seven parts by weight of the abovementioned solvent mixture and the concentrate thus obtained is diluted with water to the desired concentration.
About 10-25 Psoroptes ovis are introduced into 1 ml of the active compound preparation to be tested, this having been pipetted into tablet nests of a deep-drawn package. After 24 hours, the degree of destruction is determined.

SMILES | degree of effectiveness (Meloidogyne incognita) | mortality at 2.5 ppm [1] | LD50 [2] | degree of effectiveness (Phorbia antiqua maggots) | mortality at 10 ppm [3] | mortality at 10 ppm (Psoroptes ovis)
CCOP(=S)(OCC)Oc1cnc(C(C)(C)C)nc1 [Comparison compound (A), reference compound] | 100% | 100% | 1 to 2.5 mg/kg | 100% | – | –
CCOP(=S)(OCC(F)(F)F)Oc1cnc(C(C)(C)C)nc1 (stereo not shown) [Example 1, O-ethyl O-(2,2,2-trifluoroethyl) O-(2-tert.-butyl-pyrimidin-5-yl)thionophosphate] | 95% | 100% | 100 to 250 mg/kg | 95% | – | –
CCOP(=S)(OCC(F)(F)C(F)F)Oc1cnc(C(C)(C)C)nc1 (stereo not shown) [Example 2] | 100% | 100% | 50 mg/kg | 100% | 100% | 100%
CCCOP(=S)(OCC)Oc1cnc(C(C)C)nc1 (stereo not shown) [known compound (B), reference compound] | 95% | – | – | 100% | – | –
